Assay [1] concerns the target T1, human α2C‐adrenoceptor (Homo sapiens, UniProt P18825).
T1 sequence (P18825 1-462): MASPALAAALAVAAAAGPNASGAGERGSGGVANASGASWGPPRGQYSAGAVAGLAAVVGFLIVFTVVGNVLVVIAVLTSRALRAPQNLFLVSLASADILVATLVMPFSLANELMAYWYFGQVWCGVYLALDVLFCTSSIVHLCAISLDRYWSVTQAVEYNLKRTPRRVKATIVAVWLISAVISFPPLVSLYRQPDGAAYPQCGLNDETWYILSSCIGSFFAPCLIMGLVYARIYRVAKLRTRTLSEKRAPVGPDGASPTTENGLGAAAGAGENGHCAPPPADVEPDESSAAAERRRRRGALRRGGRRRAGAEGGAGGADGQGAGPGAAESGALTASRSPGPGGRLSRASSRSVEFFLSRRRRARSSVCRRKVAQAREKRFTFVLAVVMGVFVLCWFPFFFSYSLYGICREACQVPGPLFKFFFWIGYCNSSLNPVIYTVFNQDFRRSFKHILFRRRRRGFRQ
Put plainly: 3H‐rauwolscine whole cell binding in CHO‐α2C cells. Details: expressed in transfected cells; host or cells: CHO-K1 with CRE-SPAP reporter.

The target in assay [2] is T1, human α2C‐adrenoceptor. In words: ERK1/2‐phosphorylation in CHO‐α2C cells. The format is cell-based. Details: expressed in transfected cells; host or cells: CHO-K1 with CRE-SPAP reporter.
For assay [3], the target named is T2, human α2A‐adrenoceptor (Homo sapiens, UniProt P08913).
T2 sequence (P08913 1-465): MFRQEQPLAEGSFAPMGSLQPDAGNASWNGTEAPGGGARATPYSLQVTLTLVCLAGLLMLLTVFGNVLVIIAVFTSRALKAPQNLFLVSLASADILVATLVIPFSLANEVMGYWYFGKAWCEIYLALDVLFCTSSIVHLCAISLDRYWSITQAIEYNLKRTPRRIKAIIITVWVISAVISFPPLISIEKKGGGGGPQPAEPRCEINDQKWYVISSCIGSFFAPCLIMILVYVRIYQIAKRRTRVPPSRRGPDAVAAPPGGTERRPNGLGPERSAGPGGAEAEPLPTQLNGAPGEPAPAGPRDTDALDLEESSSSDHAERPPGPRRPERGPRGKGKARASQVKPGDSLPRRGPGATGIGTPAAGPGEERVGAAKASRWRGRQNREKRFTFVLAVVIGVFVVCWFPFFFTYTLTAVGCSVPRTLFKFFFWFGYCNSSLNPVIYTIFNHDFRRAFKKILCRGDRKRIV

In assay [4] the target is T2, human α2A‐adrenoceptor. In words: ERK1/2‐phosphorylation in CHO‐α2A cells. Details: expressed in transfected cells; host or cells: CHO-K1 with CRE-SPAP reporter. The format is cell-based.
Assay [5] addresses T1, human α2C‐adrenoceptor.
Assay [6] deals with T2, human α2A‐adrenoceptor. In words: 3H‐rauwolscine whole cell binding in CHO‐α2A cells. Also on record: expressed in transfected cells; host or cells: CHO-K1 with CRE-SPAP reporter. Conditions: read-out: Log KD (binding) (converted).
The mark [7] stands for this setting: CHO‐α2C cells, CRE‐SPAP production in the absence of forskolin.
The mark [8] stands for this setting: CHO‐α2C cells, 3H‐rauwolscine whole cell binding, given as negative log KD, mean only (SEM in Table 4).
[9] abbreviates: CHO‐α2C cells, maximum response compared to 10 μM PDBu, mean ± SEM.
The mark [10] stands for this setting: CHO‐α2C cells, given as negative log EC50, mean ± SEM.
[11] abbreviates: CHO‐α2C cells, % inhibition from the 3 μM forskolin control, mean ± SEM.
[12] abbreviates: CHO‐α2C cells, inhibition of 3 μM forskolin‐stimulated CRE‐SPAP production, given as negative log IC50, mean ± SEM.

Molecules are shown by their SMILES. Read-outs that look alike come from different tables or passages of the source.

With `Cc1cccc(C(C)c2cnc[nH]2)c1C` (stereo not shown) [Medetomidine], the Kd is 32.4 nM at human α2C‐adrenoceptor [1] (read-out: Log KD (converted)) and 32.4 nM on human α2C‐adrenoceptor [1] (read-out: Log KD, CHO‐α2C (converted)). For the same molecule, the “% 10 μM PDBu, ERK1/2‐phosphorylation” value on human α2C‐adrenoceptor [2] amounted to 159.3 ± 16.4%; on human α2A‐adrenoceptor [4], 114.1 ± 9.3%. The EC50 on human α2C‐adrenoceptor [2] (read-out: Log EC50, ERK1/2‐phosphorylation (converted)) was 0.195 nM. In addition, the “% 3 μM forskolin, CRE‐SPAP (without forskolin)” value on human α2A‐adrenoceptor [3] turned out to be 23.1 ± 4.7%. For the same molecule, the “% inhibition, CRE‐SPAP (with forskolin)” value at human α2C‐adrenoceptor [5] came out at 86.4 ± 2.1%. For the same molecule, the “Log EC50 (Gs), CRE‐SPAP (without forskolin)” value (from here on “Log EC50 … (without forskolin)”) at human α2C‐adrenoceptor [5] is reported as “No response”. Moreover, at human α2C‐adrenoceptor [5] (Log IC50 (Gi), CRE‐SPAP (with forskolin)), half-maximal inhibition (IC50) was put at 0.513 nM.
On to `OCc1cc(C(O)CNCCCCCCOCCCCc2ccccc2)ccc1O` (stereo not shown) [Salmeterol], for which the Kd is 5250 nM at human α2C‐adrenoceptor [1] (CHO‐α2C cells, 3H‐rauwolscine whole cell binding, given as negative log KD, mean only (SEM in Table 4), read-out: Log KD (converted)) and 17400 nM on human α2A‐adrenoceptor [6]. The “Log EC50 … (without forskolin)” value at human α2A‐adrenoceptor [3] (CHO‐α2A (cell line 1), absence of forskolin) is “No response”; at human α2C‐adrenoceptor [5] (setting [7]) it was “No response”. Further, the “Log IC50 (Gi), CRE‐SPAP (with forskolin)” value at human α2A‐adrenoceptor [3] (CHO‐α2A (cell line 1, 5830 fmol/mg protein), 3 μM forskolin) is “No response”; on human α2C‐adrenoceptor [5], “No response”.
For `C=CCN1CCc2nc(N)sc2CC1` [BHT920], the “Log KD” value at human α2C‐adrenoceptor [1] is −5.99. At human α2C‐adrenoceptor [2], the “% 10 μM PDBu, ERK1/2‐phosphorylation” value turned out to be 144.8 ± 23.2% and the “Log EC50, ERK1/2‐phosphorylation” value is reported as −8.18 ± 0.12. On human α2C‐adrenoceptor [5], the “% inhibition, CRE‐SPAP (with forskolin)” value is recorded as 86.8 ± 6.0%; the “Log EC50 … (without forskolin)” value is on record as “No response”; the “Log IC50 (Gi), CRE‐SPAP (with forskolin)” value was −7.41 ± 0.10; the “Log efficacy ratio (KD/IC50)” value is 1.42.
For `Cc1sc(C)c2c1CCC=C2c1cnc[nH]1.O=C(O)/C=C\C(=O)O` [T‐CG 1000], the “Log KD” value on human α2C‐adrenoceptor [1] (setting [8]) is −6.75. On human α2C‐adrenoceptor [2] (setting [9]), the “% 10 μM PDBu, ERK1/2‐phosphorylation” value came out at 87.5 ± 14.2%. Moreover, at human α2C‐adrenoceptor [2] (setting [10]), the “Log EC50, ERK1/2‐phosphorylation” value was −7.05 ± 0.14. Moreover, the “Log efficacy ratio (KD/IC50)” value at human α2C‐adrenoceptor [5] was −0.63. Also, at human α2C‐adrenoceptor [5] (setting [11]), the “% inhibition, CRE‐SPAP (with forskolin)” value came out at 50.2 ± 5.1%. Besides, the “Log EC50 … (without forskolin)” value on human α2C‐adrenoceptor [5] (setting [7]) is reported as “No response”. In addition, on human α2C‐adrenoceptor [5] (setting [12]), the “Log IC50 (Gi), CRE‐SPAP (with forskolin)” value was −6.12 ± 0.05.
Consider `CC(C)NCC(O)c1ccc(O)c(O)c1` (stereo not shown) [Isoprenaline], for which the “% 10 μM PDBu, ERK1/2‐phosphorylation” value at human α2C‐adrenoceptor [2] was found to be 130.7 ± 11.1%. The “% inhibition, CRE‐SPAP (with forskolin)” value at human α2C‐adrenoceptor [5] came to 95.0 ± 5.2%.
As for `COc1ccc(OC)c(C(O)CNC(=O)CN)c1` (stereo not shown) [Midodrine], at human α2C‐adrenoceptor [2] (CHO‐α2C cells, response at 100 μM ligand (no EC50 given) compared to 10 μM PDBu), the “% 10 μM PDBu, ERK1/2‐phosphorylation” value is reported as 80.9 ± 15.6%. Moreover, at human α2A‐adrenoceptor [4] (CHO‐α2A, response at 100 μM), the “% 10 μM PDBu, ERK1/2‐phosphorylation, response at 100 μM agonist” value is 101.0 ± 15.5%.
Turning to `CCN1CCc2nc(N)oc2CC1` [BHT933], at human α2C‐adrenoceptor [1] (setting [8]), the “Log KD” value is recorded as −5.32. Also, the “% 10 μM PDBu, ERK1/2‐phosphorylation” value on human α2C‐adrenoceptor [2] (setting [9]) came to 150.0 ± 19.7%. Further, at human α2C‐adrenoceptor [2] (setting [10]), the “Log EC50, ERK1/2‐phosphorylation” value was −6.63 ± 0.18. For the same molecule, the “Log efficacy ratio (KD/IC50)” value at human α2C‐adrenoceptor [5] came to 0.62. Besides, on human α2C‐adrenoceptor [5] (setting [11]), the “% inhibition, CRE‐SPAP (with forskolin)” value is recorded as 86.0 ± 4.6%. At human α2C‐adrenoceptor [5] (setting [7]), the “Log EC50 … (without forskolin)” value is on record as “No response”. Also, on human α2C‐adrenoceptor [5] (setting [12]), the “Log IC50 (Gi), CRE‐SPAP (with forskolin)” value is recorded as −5.94 ± 0.08.

The record behind these values is PMC9471048, “The signaling and selectivity of α‐adrenoceptor agonists for the human α2A, α2B and α2C‐adrenoceptors and comparison with human α1 and β‐adrenoceptors” (Pharmacology Research & Perspectives, 2022).
